The values below come from publication PMC4753412, “Involvement of an octose ketoreductase and two acyltransferases in the biosynthesis of paulomycins” (Scientific Reports, 2016).

Holding throughout (experiment): microbe, parasite or virus in culture
What all share (parameters): agar dilution antibacterial assay, minimum inhibitory concentration

One assay concerns S. pneumoniae. The note with it: Streptococcus pneumoniae, 24 h. As for the experimental part: (§1) Antibacterial activity was determined by agar dilution method according to the method as described. […], […], Staphylococcus epidermidis, Staphylococcus aureus and Bacillus subtilis were used as the tested bacteria. After incubation for 24 h at 37 °C, the MICs were calculated (Table S3).

In a further assay the test system is S. pyogenes. The note with it: Streptococcus pyogenes, 24 h. Here is the method: as §1
For a further assay, the system named is S. aureus. The note with it: Staphylococcus aureus, 24 h. As for the experimental part:
as §1

Another assay has as its system S. epidermidis. The note with it: Staphylococcus epidermidis, 24 h. Here is the method: as §1
Another assay deals with Bacillus subtilis. To be noted: 24 h. As for the experimental part: as §1

In brackets after ≈: the same amount, converted by molar mass. Read-outs that look alike come from different tables or passages of the source.

`CC=C(N=C=S)C(=O)OC1C(COC(C)=O)OC(C2(O)CC(=O)C(N)=C(C(=O)O)C2=O)C(O)C1OC1CC(OC)C(O)(C(C)OC(=O)C(C)CC)C(C)O1` (stereo not shown) [compound 3, 3]: the MIC worked out at 0.05 µg/mL (≈ 0.0635 µM) in the assay with S. pneumoniae (read-out: MIC 3); 0.025 µg/mL (≈ 0.0318 µM) in the assay on S. pyogenes (read-out: MIC 3); 0.1 µg/mL (≈ 0.127 µM) with S. aureus (read-out: MIC 3); 0.05 µg/mL (≈ 0.0635 µM) in the assay with S. epidermidis (read-out: MIC 3); 0.1 µg/mL (≈ 0.127 µM) in the assay with Bacillus subtilis (read-out: MIC 3).
For the compound `C/C=C(\N=C=S)C(=O)O[C@H]1[C@@H](O[C@H]2C[C@H](OC)[C@@](O)([C@H](C)OC(=O)C(C)C)[C@H](C)O2)[C@@H](O)[C@H]([C@@]2(O)CC(=O)C(=N)C(C(=O)O)=C2O)O[C@@H]1COC(C)=O` [compound 4, paulomycin B], the MIC was 0.05 µg/mL (≈ 0.0647 µM) in the assay on S. pneumoniae (read-out: MIC 4); 0.025 µg/mL (≈ 0.0324 µM) in the assay on S. pyogenes (read-out: MIC 4); 0.1 µg/mL (≈ 0.129 µM) in the assay with S. aureus (read-out: MIC 4); 0.05 µg/mL (≈ 0.0647 µM) in the assay on S. epidermidis (read-out: MIC 4); 0.1 µg/mL (≈ 0.129 µM) in the assay on Bacillus subtilis (read-out: MIC 4).
Take `CC=C(N=C=S)C(=O)OCC1OC(C2(O)CC(=O)C(N)=C(C(=O)O)C2=O)C(O)C(OC2CC(OC)C(O)(C(C)OC(=O)C(C)C)C(C)O2)C1O` (stereo not shown) [compound 8, 8]: the MIC was > 100 µg/mL in the assay on S. pneumoniae (read-out: MIC 8); > 50 µg/mL with S. pyogenes (read-out: MIC 8); > 100 µg/mL in the assay on S. aureus (read-out: MIC 8); > 100 µg/mL in the assay with S. epidermidis (read-out: MIC 8); > 100 µg/mL in the assay on Bacillus subtilis (read-out: MIC 8).
For the compound `CC=C(N=C=S)C(=O)OCC1OC(C2(O)CC(=O)C(N)=C(C(=O)O)C2=O)C(O)C(OC2CC(OC)C(O)(C(C)OC(=O)C(C)CC)C(C)O2)C1O` (stereo not shown) [compound 9, 9], the MIC in the assay with S. pneumoniae (read-out: MIC 9) was > 100 µg/mL; with S. pyogenes (read-out: MIC 9), > 50 µg/mL; in the assay with S. aureus (read-out: MIC 9), > 100 µg/mL; with S. epidermidis (read-out: MIC 9), > 100 µg/mL; in the assay on Bacillus subtilis (read-out: MIC 9), > 100 µg/mL.
As for `CC=C(N=C=S)C(=O)OCC1OC(C2(O)CC(=O)C(N)=C(C(=O)O)C2=O)C(O)C(OC2CC(OC)C(O)(C(C)=O)C(C)O2)C1O` (stereo not shown) [compound 10, 10], the MIC in the assay with S. pneumoniae (read-out: MIC 10), in the assay on S. pyogenes (read-out: MIC 10), in the assay with S. aureus (read-out: MIC 10), with S. epidermidis (read-out: MIC 10) and in the assay on Bacillus subtilis (read-out: MIC 10) was > 100 µg/mL each time.
